Measured values taken from patent US20120171126A1, “NOVEL [3,2-c] HETEROARYL STEROIDS AS GLUCOCORTICOID RECEPTOR AGONISTS COMPOSITIONS AND USES THEREOF” (priority 2009, published 2012).
pIC50: −log10 of the molar value. Where two headings read alike, the source gives them in different places.

Assays:
IL-8 = assay: Glucocorticoid transrepression assay, IL-8 inhibition (TR); type: cell-based; details: Homo sapiens
In short: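 Human lung epithelial NCI-H292 cells at 75-90% confluence were pretreated with steroid or antagonist for 1 h at 37 °C. TNFα was then added at 10 ng/ml final and cells were incubated overnight, with 10 μM dexamethasone as the maximum-inhibition control. Secreted IL-6 and IL-8 were measured in the medium by MSD multi-spot immunoassay.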

[1] = system: human glucocorticoid response element coupled with a luciferase reporter gene; assay: GRE-transactivation assay (HeLa-GRE luciferase, TA); type: cell-based
Protocol: HeLa cells were stably transfected with a human glucocorticoid response element coupled with a luciferase reporter gene. Cells were plated in 96 well Packard View Plates (black sides/ clear bottom) at 20 K cells/0.2 ml complete medium. Plates were incubated overnight at 37°/5% CO2. Medium was aspirated and replaced with 150 μl medium containing 5% charcoal-treated FBS and cells incubated overnight again. Test compounds were prepared in 5% charcoal-treated FBS medium. Medium was aspirated from plates and replaced with 100 μl of test compounds or controls. Plates were returned to incubator for exactly 24 hours. To measure induced luciferase, 100 μl of Steady-Glo luciferase assay substrate (Promega) was added to each well. Plates were sealed and mixed on a plate shaker for 5 minutes. Plate bottom opaque seals were added and the plates were allowed to stand for 60 minutes. Luminescence was measured on a Top-Count instrument (Perkin-Elmer).

IL-6 = assay: Glucocorticoid transrepression assay, IL-6 inhibition (TR); type: cell-based; details: Homo sapiens; Table 4; NCl-H292 cells, TNFα 10 ng/ml
Protocol: Human Lung epithelial cell line NCl-H292 cells were dissociated from stock flask using 0.05% trypsin/0.53 mM EDTA. Cells were suspended in complete medium and counted. Cells were plated in 96-well flat-bottom plates at 20K cells /well in 0.2 ml/well. Plates were incubated for 24-48 hours until cells were between 75-90% confluent. Medium was aspirated and replaced with medium containing various concentrations of steroids or antagonists. After 1 hour incubation at 37°, TNFα (10 ng/ml final concentration in 0.2 ml) was added and the cells incubated overnight. Control wells with and without TNF were included on each plate, as well as wells with TNF in addition to a maximum (10 μM) concentration of dexamethasone. The cell culture medium was sampled and IL-6 and IL-8 cytokine production was measured using the MSD Multi-Spot immunoassay.

[2] = symptoms associated with chronic nasal congestion; cited from earlier work
[3] = Table 1, NCl-H292 cells, TNFα 10 ng/ml
[4] = Table 1, NCl-H292 cells, TNFα 10 ng/ml, read-out: IL-8 inhibition (TR) Emax % inhibition
[5] = HeLa cells, 24 hours, luciferase, read-out: EMAX value, GRE-transactivation assay

SMILES	pIC50 (IL-8; [3])	Emax (IL-8; [4]) [%]	Emax [1, 5] [%]	also measured
CC12Cc3cnn(-c4ccc(F)cc4)c3C=C1CCC1C2[C@@H](O)CC2(C)C1CC[C@]2(O)C(=O)CSc1nc2ccccc2s1 (stereo partly shown) [Compound 1]	7.70 to 10.22	> 80	71	–
CC12Cc3cnn(-c4ccc(F)cc4)c3C=C1CCC1C2[C@@H](O)CC2(C)C1CC[C@]2(O)C(=O)Cn1cc(-c2ccccc2)cn1 (stereo partly shown) [Compound 1]	–	–	69	–
C[C@]12Cc3cnn(-c4ccc(F)cc4)c3C=C1CCC1C2[C@@H](O)C[C@@]2(C)C1CC[C@]2(OC(=O)c1ccco1)C(=O)SCc1ccc(-c2ccccn2)cc1 (stereo partly shown) [Compound 1]	–	–	–	Emax (IL-6): > 80%; pIC50 (IL-6): 7.70 to 10.22
C[C@]12Cc3cnn(-c4ccc(F)cc4)c3C=C1CCC1C2[C@@H](O)C[C@@]2(C)C1CC[C@]2(OC(=O)c1ccco1)C(=O)SCc1ccc2ccccc2n1 (stereo partly shown) [Compound 2]	–	–	–	Emax (IL-6): > 80%; pIC50 (IL-6): 7.70 to 10.22
C[C@]12Cc3cnn(-c4ccc(F)cc4)c3C=C1CCC1C2[C@@H](O)C[C@@]2(C)C1CC[C@]2(OC(=O)c1ccco1)C(=O)SCc1nc2ccccc2o1 (stereo partly shown) [Compound 3]	–	–	–	Emax (IL-6): > 80%; pIC50 (IL-6): 7.70 to 10.22
C[C@]12Cc3cnoc3C=C1CCC1C2[C@@H](O)C[C@@]2(C)C1CC[C@]2(O)C(=O)Nc1nc2cccnc2s1 (stereo partly shown) [Compound 4-1]	–	–	–	Emax (IL-8; text value for compound 4-1, only a % value printed, read-out: IL-8 inhibition(TR) IC50/Emax(nM, % inhibition)): 23%; Emax ([1]; text value for compound 4-1, only a % value printed, read-out: H Hela-GRE luciferase(TA) IC50/Emax(nM, % inhibition)): 0%
C[C@]12Cc3cnn(-c4ccc(F)cc4)c3C=C1CCC1C2[C@@H](O)C[C@@]2(C)C1CC[C@]2(OC(=O)c1ccco1)C(=O)SCc1cccc(N2CCCC2)n1 (stereo partly shown) [Compound 4]	–	–	–	Emax (IL-6): > 80%; pIC50 (IL-6): 7.70 to 10.22
CC12Cc3cnn(CCC#N)c3C=C1CCC1C2[C@@H](O)CC2(C)C1CC[C@]2(O)C(=O)CSc1ccccn1 (stereo partly shown) [Compound 60]	6.40 to 7.18	< 60	15	–
CC12Cc3cnn(C4CCOCC4)c3C=C1CCC1C2[C@@H](O)CC2(C)C1CC[C@]2(O)C(=O)CSc1nc2cccnc2s1 (stereo partly shown) [Compound 71]	6.40 to 7.18	> 80	85	–
CC12Cc3cnn(C4CCOCC4)c3C=C1CCC1C2[C@@H](O)CC2(C)C1CC[C@]2(O)C(=O)CSc1ccc2ccccc2n1 (stereo partly shown) [Compound 74]	6.40 to 7.18	70 to 80	56	–
Cc1ccnc(SCC(=O)[C@@]2(O)CCC3C4CCC5=Cc6c(cnn6C6CCCCC6)CC5(C)C4[C@@H](O)CC32C)n1 (stereo partly shown) [Compound 131]	7.70 to 10.22	> 80	83	–
Oc1cccc(Nc2ncc(F)c(Nc3cccc(O)c3)n2)c1 [Compound R112]	–	–	–	absolute difference over placebo [2]: 9%; improvement from baseline measurements (prior to drug initiation) [2]: up to 38%; relative improvement over placebo [2]: greater than 20%
C[C@@H]1C[C@H]2[C@@H]3CCC4=CC(=O)C=C[C@]4(C)[C@@]3(F)[C@@H](O)C[C@]2(C)[C@@]1(O)C(=O)CO [dexamethasone, reference compound]	–	–	100	–
CCC(=O)O[C@]1(C(=O)SCF)[C@H](C)C[C@H]2[C@@H]3C[C@H](F)C4=CC(=O)C=C[C@]4(C)[C@@]3(F)[C@@H](O)C[C@@]21C [fluticasone propionate, reference compound]	–	–	99	–
